From ChEMBL document CHEMBL1151624, “Isolation of artemisinin (qinghaosu) from Artemisia annua growing in the United States” (J Nat Prod, 1984)
In brackets after ≈: the same amount, converted by molar mass.

Assays:
Serratia marcescens = experiment: Antimicrobial activity against Serratia marcescens; assay type: functional
Shigella dysenteriae = experiment: Antimicrobial activity against Shigella dysenteriae; assay type: functional
Plasmodium falciparum [1] = experiment: Antimalarial activity against chloroquine-sensitive Plasmodium falciparum CAMP by semiautomated micro dilution assay; assay type: functional, organism-based
Neisseria meningitidis = experiment: Antimicrobial activity against Neisseria meningitidis; assay type: functional
Neisseria gonorrhoeae = experiment: Antimicrobial activity against Neisseria gonorrhoeae; assay type: functional
Staphylococcus aureus = experiment: Antimicrobial activity against Staphylococcus aureus; assay type: functional
Proteus sp. = experiment: Antimicrobial activity against Proteus Sp.; assay type: functional; details: Proteus sp. (in: enterobacteria)
Enterococcus faecalis = experiment: Antimicrobial activity against Streptococcus faecalis; assay type: functional
Plasmodium falciparum [2] = experiment: Antimalarial activity against chloroquine-resistant Plasmodium falciparum Smith by semiautomated micro dilution assay; assay type: functional, organism-based
Escherichia coli = experiment: Antimicrobial activity against Escherichia coli; assay type: functional
Klebsiella = experiment: Antimicrobial activity against Klebsiella; assay type: functional

Structure (SMILES) | MIC (Serratia marcescens) [µg/mL] | MIC (Shigella dysenteriae) [µg/mL] | IC50 (Plasmodium falciparum [1]) [ng/mL] | MIC (Neisseria meningitidis) [µg/mL] | MIC (Neisseria gonorrhoeae) [µg/mL] | MIC (Staphylococcus aureus) [µg/mL] | MIC (Proteus sp.) [µg/mL] | MIC (Enterococcus faecalis) [µg/mL] | IC50 (Plasmodium falciparum [2]) [ng/mL] | MIC (Escherichia coli) [µg/mL] | MIC (Klebsiella) [µg/mL]
C[C@@H]1CC[C@H]2[C@@H](C)C(=O)O[C@@H]3O[C@@]4(C)CC[C@@H]1[C@]32OO4 [ARTEMISININ] | > 32 | > 32 | < 3.4 | > 1 | > 1 | > 32 | > 32 | > 32 | < 3.4 | > 32 | > 32
OC(c1cc(C(F)(F)F)nc2c(C(F)(F)F)cccc12)C1CCCCN1 (stereo not drawn) [MEFLOQUINE] |  |  | 3.5 (≈ 0.00925 µM) |  |  |  |  |  | 2.5 (≈ 0.00661 µM) |  | 
